Experimental data published in ChEMBL document CHEMBL4308841, “Synthesis, in vitro antiproliferative activity, and kinase inhibitory effects of pyrazole-containing diarylureas and diarylamides” (Eur J Med Chem, 2018).

Experiments:
[1] = system: HL-60(TB); test: Growth inhibition of human HL-60(TB) cells incubated for 48 hrs by sulforhodamine B assay; assay type: functional, cell-based; details: HL-60, 48 h
[2] = system: NCI-H23; test: Growth inhibition of human NCI-H23 cells incubated for 48 hrs by sulforhodamine B assay; assay type: functional, cell-based; details: NCI-H23, 48 h
[3] = system: SF-539; test: Growth inhibition of human SF539 cells incubated for 48 hrs by sulforhodamine B assay; assay type: functional, cell-based; details: SF-539, 48 h
[4] = system: UACC-257; test: Growth inhibition of human UACC257 cells incubated for 48 hrs by sulforhodamine B assay; assay type: functional, cell-based; details: UACC-257, 48 h
[5] = system: OVCAR-8; test: Growth inhibition of human OVCAR8 cells incubated for 48 hrs by sulforhodamine B assay; assay type: functional, cell-based; details: OVCAR-8, 48 h
[6] = system: NCI/ADR-RES; test: Growth inhibition of human NCI/ADR-RES cells incubated for 48 hrs by sulforhodamine B assay; assay type: functional, cell-based
[7] = system: UO-31; test: Growth inhibition of human UO31 cells incubated for 48 hrs by sulforhodamine B assay; assay type: functional, cell-based; details: UO-31, 48 h
[8] = system: DU-145; test: Growth inhibition of human DU145 cells incubated for 48 hrs by sulforhodamine B assay; assay type: functional, cell-based; details: DU-145, 48 h
[9] = system: BT-549; test: Growth inhibition of human BT549 cells incubated for 48 hrs by sulforhodamine B assay; assay type: functional, cell-based; details: BT-549, 48 h
[10] = system: MOLT-4; test: Growth inhibition of human MOLT4 cells assessed as cell growth at 0.01 uM incubated for 48 hrs by sulforhodamine B assay relative to control; assay type: functional; details: MOLT-4, 48 h, read-out: Activity
[11] = system: NCI-H522; test: Growth inhibition of human NCI-H522 cells assessed as cell growth at 0.01 uM incubated for 48 hrs by sulforhodamine B assay relative to control; assay type: functional; details: NCI-H522, 48 h, read-out: Activity
[12] = system: SK-MEL-28; test: Growth inhibition of human SK-MEL-28 cells assessed as cell growth at 0.01 uM incubated for 48 hrs by sulforhodamine B assay relative to control; assay type: functional; details: SK-MEL-28, 48 h, read-out: Activity
[13] = system: OVCAR-3; test: Growth inhibition of human OVCAR3 cells assessed as cell growth at 0.01 uM incubated for 48 hrs by sulforhodamine B assay relative to control; assay type: functional; details: OVCAR-3, 48 h, read-out: Activity
[14] = system: ACHN; test: Growth inhibition of human ACHN cells assessed as cell growth at 0.01 uM incubated for 48 hrs by sulforhodamine B assay relative to control; assay type: functional; details: read-out: Activity
[15] = system: CCRF-CEM; test: Growth inhibition of human CCRF-CEM cells assessed as cell growth at 0.1 uM incubated for 48 hrs by sulforhodamine B assay relative to control; assay type: functional; details: read-out: Activity
[16] = system: NCI-H322M; test: Growth inhibition of human NCI-H322M cells assessed as cell growth at 0.1 uM incubated for 48 hrs by sulforhodamine B assay relative to control; assay type: functional; details: read-out: Activity
[17] = system: KM12; test: Growth inhibition of human KM12 cells assessed as cell growth at 0.1 uM incubated for 48 hrs by sulforhodamine B assay relative to control; assay type: functional; details: KM12, 48 h, read-out: Activity
[18] = system: SK-MEL-28; test: Growth inhibition of human SK-MEL-28 cells assessed as cell growth at 0.1 uM incubated for 48 hrs by sulforhodamine B assay relative to control; assay type: functional; details: SK-MEL-28, 48 h, read-out: Activity
[19] = system: T47D; test: Growth inhibition of human T47D cells assessed as cell growth at 0.1 uM incubated for 48 hrs by sulforhodamine B assay relative to control; assay type: functional; details: read-out: Activity
[20] = system: CCRF-CEM; test: Growth inhibition of human CCRF-CEM cells assessed as cell growth at 1 uM incubated for 48 hrs by sulforhodamine B assay relative to control; assay type: functional; details: read-out: Activity
[21] = system: RPMI-8226; test: Growth inhibition of human RPMI8226 cells assessed as cell growth at 1 uM incubated for 48 hrs by sulforhodamine B assay relative to control; assay type: functional; details: RPMI-8226, 48 h, read-out: Activity
[22] = system: SK-MEL-2; test: Growth inhibition of human SK-MEL-2 cells assessed as cell growth at 1 uM incubated for 48 hrs by sulforhodamine B assay relative to control; assay type: functional; details: SK-MEL-2, 48 h, read-out: Activity
[23] = system: CAKI-1; test: Growth inhibition of human Caki1 cells assessed as cell growth at 1 uM incubated for 48 hrs by sulforhodamine B assay relative to control; assay type: functional; details: CAKI-1, 48 h, read-out: Activity
[24] = system: PC-3; test: Growth inhibition of human PC3 cells assessed as cell growth at 1 uM incubated for 48 hrs by sulforhodamine B assay relative to control; assay type: functional; details: PC-3, 48 h, read-out: Activity
[25] = system: MDA-MB-231; test: Growth inhibition of human MDA-MB-231 cells assessed as cell growth at 1 uM incubated for 48 hrs by sulforhodamine B assay relative to control; assay type: functional; details: MDA-MB-231, 48 h, read-out: Activity
[26] = system: Malme-3M; test: Growth inhibition of human MALME-3M cells assessed as cell growth at 100 uM incubated for 48 hrs by sulforhodamine B assay relative to control; assay type: functional; details: read-out: Activity
[27] = system: OVCAR-3; test: Growth inhibition of human OVCAR3 cells assessed as cell growth at 100 uM incubated for 48 hrs by sulforhodamine B assay relative to control; assay type: functional; details: OVCAR-3, 48 h, read-out: Activity
[28] = system: BT-549; test: Growth inhibition of human BT549 cells assessed as cell growth at 100 uM incubated for 48 hrs by sulforhodamine B assay relative to control; assay type: functional; details: BT-549, 48 h, read-out: Activity
[29] = read-out: LC50 (the source's name)
[30] = read-out: pLC50 (the source's name) (converted)

What does the source list for O=C(Nc1cccc(-n2cc(-c3ccncc3)c(-c3cc(O)cc(Cl)c3)n2)c1)Nc1ccc(Cl)c(Cl)c1?
GI50 ([1]; read-out: GI50): 3.02 µM; LC50 ([1]; read-out: LC50): > 100 µM; GI50 ([1]; read-out: pGI50 (converted)): 3.02 µM; LC50 ([1]; read-out: pLC50 (converted)): > 100 µM; GI50 ([2]; read-out: GI50): 2.41 µM; LC50 ([2]; read-out: LC50): > 100 µM; TGI ([2]; read-out: TGI): 62.9 µM; GI50 ([2]; read-out: pGI50 (converted)): 2.4 µM; LC50 ([2]; read-out: pLC50 (converted)): > 100 µM; TGI ([2]; read-out: pTGI (converted)): 5.01 µM; GI50 ([3]; read-out: GI50): 1.44 µM; CC50 [3, 29]: 7.4 µM; TGI ([3]; read-out: TGI): 32.7 µM; GI50 ([3]; read-out: pGI50 (converted)): 1.45 µM; CC50 [3, 30]: 7.41 µM; TGI ([3]; read-out: pTGI (converted)): 3.24 µM; GI50 ([4]; read-out: GI50): 1.96 µM; CC50 [4, 29]: 9.5 µM; TGI ([4]; read-out: TGI): 43 µM; GI50 ([4]; read-out: pGI50 (converted)): 1.95 µM; CC50 [4, 30]: 9.55 µM; TGI ([4]; read-out: pTGI (converted)): 4.27 µM; GI50 ([5]; read-out: GI50): 2.02 µM; CC50 [5, 29]: > 100 µM; TGI ([5]; read-out: TGI): 50.6 µM; GI50 ([5]; read-out: pGI50 (converted)): 2 µM; CC50 [5, 30]: > 100 µM; TGI ([5]; read-out: pTGI (converted)): 5.01 µM; GI50 ([6]; read-out: GI50): 3.21 µM; CC50 [6, 29]: > 100 µM; TGI ([6]; read-out: TGI): > 100 µM; GI50 ([6]; read-out: pGI50 (converted)): 3.24 µM; CC50 [6, 30]: > 100 µM; TGI ([6]; read-out: pTGI (converted)): > 100 µM; IC50 [7]: 1.91 µM; GI50 ([7]; read-out: GI50): 1.91 µM; CC50 [7, 29]: > 100 µM; TGI ([7]; read-out: TGI): 65.1 µM; GI50 ([7]; read-out: pGI50 (converted)): 1.91 µM; CC50 [7, 30]: > 100 µM; TGI ([7]; read-out: pTGI (converted)): 6.46 µM; GI50 ([8]; read-out: GI50): 2.5 µM; CC50 [8, 29]: > 100 µM; TGI ([8]; read-out: TGI): 10.1 µM; GI50 ([8]; read-out: pGI50 (converted)): 2.82 µM; CC50 [8, 30]: > 100 µM; TGI ([8]; read-out: pTGI (converted)): 10.2 µM; GI50 ([9]; read-out: GI50): 2.06 µM; CC50 [9, 29]: > 100 µM; TGI ([9]; read-out: TGI): 52.2 µM; GI50 ([9]; read-out: pGI50 (converted)): 2.04 µM; CC50 [9, 30]: > 100 µM; TGI ([9]; read-out: pTGI (converted)): 5.25 µM; growth at 0.01 µM [10]: 93%; growth at 0.01 µM [11]: 88%; growth at 0.01 µM [12]: 108%; growth at 0.01 µM [13]: 103%; growth at 0.01 µM [14]: 91%; growth at 0.1 µM [15]: 95%; growth at 0.1 µM [16]: 88%; growth at 0.1 µM [17]: 100%; growth at 0.1 µM [18]: 97%; growth at 0.1 µM [19]: 88%; growth at 1 µM [20]: 76%; growth at 1 µM [21]: 57%; growth at 1 µM [22]: 56%; growth at 1 µM [23]: 54%; growth at 1 µM [24]: 72%; growth at 1 µM [25]: 50%; growth at 100 µM [26]: -45%; growth at 100 µM [27]: -20%; growth at 100 µM [28]: -38%
